# According to US10723699B2 (Hyundai Pharm Co., Ltd., priority 2015, dated 2020):
# pEC50: −log10 of the molar value. Like-named read-outs stand apart in the source and are kept apart here.
# Target: T1, G protein-coupled receptor 119 (GPR-119) (Mesocricetus auratus, UniProt A0A1U8CD06)
# T1 construct: hamster-derived β-cells containing G protein-coupled receptor 119 (GPR-119), HIT-T15 cells; host or cells: HIT-T15 (hamster pancreatic β-cells)
# T1 sequence (A0A1U8CD06 1-334): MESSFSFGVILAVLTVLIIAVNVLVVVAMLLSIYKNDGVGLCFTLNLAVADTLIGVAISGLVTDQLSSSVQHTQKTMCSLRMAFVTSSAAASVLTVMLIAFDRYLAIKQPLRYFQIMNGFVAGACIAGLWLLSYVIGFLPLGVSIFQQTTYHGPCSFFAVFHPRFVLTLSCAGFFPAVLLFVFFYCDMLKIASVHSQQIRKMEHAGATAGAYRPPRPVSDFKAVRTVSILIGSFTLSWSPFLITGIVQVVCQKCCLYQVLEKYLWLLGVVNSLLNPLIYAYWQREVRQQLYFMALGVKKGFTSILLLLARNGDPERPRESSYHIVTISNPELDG
# Experiment: cAMP activity in HIT-T15 cells (cAMP dynamic kit, FRET)
# Type: cell-based, hamster
# In short: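 Hamster HIT-T15 cells (60,000/well) were treated next day with compound at six concentrations, 0.0032–10 μM, for 1 h at 37° C. Cells were then lysed and cAMP measured by competitive HTRF immunoassay (D2-cAMP, cryptate anti-cAMP). Activity was derived as the change in FRET signal relative to DMSO.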
# [1] = 1 hour at 37° C., six concentrations 0.0032 to 10 μM, read-out: EC50
pEC50 [1],"pEC50 (Table 2, read-out: EC50 value)",Compound
7.55,≥ 7.30,"CC(C)(C)OC(=O)N1CCC(COc2ccc(C3=CCC(C(=O)N4CCC(C#N)CC4)CC3)nc2)CC1 (stereo not drawn) [Example 340, tert-butyl 4-((6-(4-(4-cyanopiperidine-1-carbonyl)cyclohex-1-enyl)pyridin-3-yloxy)methyl)piperidine-1-carboxylate]"
7.82,≥ 7.30,"CCc1cnc(N2CCC(COc3ccc(C4=CCC(C(=O)N5CCC(F)(F)C5)CC4)c(F)c3)CC2)nc1 (stereo not drawn) [Example 454, (3,3-difluoropyrrolidin-1-yl)(4-(4-((1-(5-ethylpyrimidin-2-yl)piperidin-4-yl)methoxy)-2-fluorophenyl)cyclohex-3-enyl)methanone]"
7.28,–,"O=C(C1CC=C(c2ccc(OCC3CCN(C(=O)C4(C(F)(F)F)CC4)CC3)c(F)c2)CC1)N1CCCC1 (stereo not drawn) [Example 421, (4-(3-fluoro-4-((1-(1-(trifluoromethyl)cyclopropanecarbonyl)piperidin-4-yl)methoxy)phenyl)cyclohex-3-enyl)(pyrrolidin-1-yl)methanone]"
7.34,≥ 7.30,"CC(C)c1noc(N2CCC(COc3ccc(C4=CCC(C(=O)N(CCO)CCO)CC4)cc3F)CC2)n1 (stereo not drawn) [Example 372, 4-(3-fluoro-4-((1-(3-isopropyl-1,2,4-oxadiazol-5-yl)piperidin-4-yl)methoxy)phenyl)-N,N-bis(2-hydroxyethyl)cyclohex-3-enecarboxamide]"
7.41,≥ 7.30,"CC(C)c1noc(N2CCC(COc3ccc(C4=CCC(C(=O)NC5CCCCC5)CC4)cc3F)CC2)n1 (stereo not drawn) [Example 366, N-cyclohexyl-4-(3-fluoro-4-((1-(3-isopropyl-1,2,4-oxadiazol-5-yl)piperidin-4-yl)methoxy)phenyl)cyclohex-3-enecarboxamide]"
7.74,≥ 7.30,"CCc1cnc(N2CCC(COc3ccc(C4=CCC(C(=O)N5CCCC5)CC4)cc3F)CC2)nc1 (stereo not drawn) [Example 293, (4-(4-((1-(5-ethylpyrimidin-2-yl)piperidin-4-yl)methoxy)-3-fluorophenyl)cyclohex-3-enyl)(pyrrolidin-1-yl)methanone]"
7.57,≥ 7.30,"O=C(C1CC=C(c2ccc(OCC3CCN(C(=O)C4(C(F)(F)F)CCCC4)CC3)c(F)c2)CC1)N1CCOCC1 (stereo not drawn) [Example 450, (4-(3-fluoro-4-((1-(1-(trifluoromethyl)cyclopentanecarbonyl)piperidin-4-yl)methoxy)phenyl)cyclohex-3-enyl)(morpholino)methanone]"
7.29,–,"CCc1cnc(N2CCC(COc3ccc(C4=CCC(C(=O)N5CCOCC5)CC4)cc3C#N)CC2)nc1 (stereo not drawn) [Example 388, 2-((1-(5-ethylpyrimidin-2-yl)piperidin-4-yl)methoxy)-5-(4-(morpholine-4-carbonyl)cyclohex-1-enyl)benzonitrile]"
7.57,≥ 7.30,"CCc1cnc(N2CCC(COc3ccc(C4=CCC(C(=O)N(CCO)CCO)CC4)c(F)c3)CC2)nc1 (stereo not drawn) [Example 437, 4-(4-((1-(5-ethylpyrimidin-2-yl)piperidin-4-yl)methoxy)-2-fluorophenyl)-N,N-bis(2-hydroxyethyl)cyclohex-3-enecarboxamide]"
7.57,≥ 7.30,"CCc1cnc(N2CCC(COc3ccc(C4=CCC(C(=O)N5CCN(C(=O)C=C(C)C)CC5)CC4)cc3)CC2)nc1 (stereo not drawn) [Example 414, 1-(4-(4-(4-((1-(5-ethylpyrimidin-2-yl)piperidin-4-yl)methoxy)phenyl)cyclohex-3-enecarbonyl)piperazin-1-yl)-3-methylbut-2-en-1-one]"
7.60,≥ 7.30,"CC1(OC(=O)N2CCC(COc3ccc(C4=CCC(C(=O)N5CCCC5)CC4)cc3F)CC2)CC1 (stereo not drawn) [Example 408, 1-methylcyclopropyl 4-((2-fluoro-4-(4-(pyrrolidine-1-carbonyl)cyclohex-1-enyl)phenoxy)methyl)piperidine-1-carboxylate]"
7.96,≥ 7.30,"CCc1cnc(N2CCC(COc3ccc(C4=CCC(C(=O)N5CC(O)C5)CC4)cc3F)CC2)nc1 (stereo not drawn) [Example 309, (4-(4-((1-(5-ethylpyrimidin-2-yl)piperidin-4-yl)methoxy)-3-fluorophenyl)cyclohex-3-enyl)(3-hydroxyazetidin-1-yl)methanone]"
7.21,–,"O=C(C1CC=C(c2ccc(OCC3CCN(C(=O)C4(C(F)(F)F)CCCC4)CC3)c(F)c2)CC1)N1CCCC1 (stereo not drawn) [Example 409, (4-(3-fluoro-4-((1-(1-(trifluoromethyl)cyclopentanecarbonyl)piperidin-4-yl)methoxy)phenyl)cyclohex-3-enyl)(pyrrolidin-1-yl)methanone]"
7.85,≥ 7.30,"CC(C)c1noc(N2CCC(COc3ccc(C4=CCC(C(=O)N5CCN(C6CC6)CC5)CC4)cc3F)CC2)n1 (stereo not drawn) [Example 348, (4-cyclopropylpiperazin-1-yl)(4-(3-fluoro-4-((1-(3-isopropyl-1,2,4-oxadiazol-5-yl)piperidin-4-yl)methoxy)phenyl)cyclohex-3-enyl)methanone]"
7.44,≥ 7.30,"CC(OC(=O)N1CCC(COc2ccc(C3=CCC(C(=O)N4CCCC4)CC3)cc2F)CC1)C(F)(F)F (stereo not drawn) [Example 406, 1,1,1-trifluoropropan-2-yl 4-((2-fluoro-4-(4-(pyrrolidine-1-carbonyl)cyclohex-1-enyl)phenoxy)methyl)piperidine-1-carboxylate]"
7.40,≥ 7.30,"CC(C)c1noc(N2CCC(COc3ccc(C4=CCC(C(=O)N5CCC(C#N)CC5)CC4)cn3)CC2)n1 (stereo not drawn) [Example 338, 1-(4-(6-((1-(3-isopropyl-1,2,4-oxadiazol-5-yl)piperidin-4-yl)methoxy)pyridin-3-yl)cyclohex-3-enecarbonyl)piperidine-4-carbonitrile]"
7.48,≥ 7.30,"CC(C)c1noc(N2CCC(COc3ccc(C4=CCC(C(=O)N5CCSCC5)CC4)c(F)c3)CC2)n1 (stereo not drawn) [Example 449, (4-(2-fluoro-4-((1-(3-isopropyl-1,2,4-oxadiazol-5-yl)piperidin-4-yl)methoxy)phenyl)cyclohex-3-enyl)(thiomorpholino)methanone]"
7.28,–,"CC(C)(C)OC(=O)N1CCC(COc2ccc(C3=CCC(C(=O)N4CCC(CO)CC4)CC3)nc2)CC1 (stereo not drawn) [Example 325, tert-butyl 4-((6-(4-(4-(hydroxymethyl)piperidine-1-carbonyl)cyclohex-1-enyl)pyridin-3-yloxy)methyl)piperidine-1-carboxylate]"
7.57,≥ 7.30,"CCc1cnc(N2CCC(COc3ccc(C4=CCC(C(=O)N5CCC(CO)CC5)CC4)cc3C#N)CC2)nc1 (stereo not drawn) [Example 391, 2-((1-(5-ethylpyrimidin-2-yl)piperidin-4-yl)methoxy)-5-(4-(4-(hydroxymethyl)piperidine-1-carbonyl)cyclohex-1-enyl)benzonitrile]"
7.55,≥ 7.30,"CCc1cnc(N2CCC(COc3ccc(C4=CCC(C(=O)N5CCC(C#N)CC5)CC4)cc3F)CC2)nc1 (stereo not drawn) [Example 321, 1-(4-(4-((1-(5-ethylpyrimidin-2-yl)piperidin-4-yl)methoxy)-3-fluorophenyl)cyclohex-3-enecarbonyl)piperidine-4-carbonitrile]"
–,≥ 7.30,"CCc1cnc(N2CCC(COc3ccc(C4=CCC(C(=O)N5CCN(CCO)CC5)CC4)cc3)CC2)nc1 (stereo not drawn) [Example 172, (4-(4-((1-(5-ethylpyrimidin-2-yl)piperidin-4-yl)methoxy)phenyl)cyclohex-3-enyl)(4-(2-hydroxyethyl)piperazin-1-yl)methanone]"
7.46,≥ 7.30,"CCc1cnc(N2CCC(COc3ccc(C4=CCC(C(=O)N5CCSCC5)CC4)cc3C)CC2)nc1 (stereo not drawn) [Example 418, (4-(4-((1-(5-ethylpyrimidin-2-yl)piperidin-4-yl)methoxy)-3-methylphenyl)cyclohex-3-enyl)(thiomorpholino)methanone]"
7.43,≥ 7.30,"CCCNC(=O)N1CCN(C(=O)C2CC=C(c3ccc(OCC4CCN(c5ncc(CC)cn5)CC4)cc3)CC2)CC1 (stereo not drawn) [Example 412, 4-(4-(4-((1-(5-ethylpyrimidin-2-yl)piperidin-4-yl)methoxy)phenyl)cyclohex-3-enecarbonyl)-N-propylpiperazine-1-carboxamide]"
7.00,–,"CCc1cnc(N2CCC(COc3ccc(C4=CCC(C(=O)N5CCN(C)CC5)CC4)cc3F)CC2)nc1 (stereo not drawn) [Example 384, (4-(4-((1-(5-ethylpyrimidin-2-yl)piperidin-4-yl)methoxy)-3-fluorophenyl)cyclohex-3-enyl)(4-methylpiperazin-1-yl)methanone]"
7.89,≥ 7.30,"CCc1cnc(N2CCC(COc3ccc(C4=CCC(C(=O)N5CC(F)(F)C(F)(F)C5)CC4)c(F)c3)CC2)nc1 (single isomer, unassigned; (+)) [Example 464, (+)-(4-(4-((1-(5-ethylpyrimidin-2-yl)piperidin-4-yl)methoxy)-2-fluorophenyl)cyclohex-3-enyl)(3,3,4,4-tetrafluoropyrrolidin-1-yl)methanone]"
7.10,–,"CC(C)(C)OC(=O)N1CCC(COc2ccc(C3=CCC(C(=O)N4CCOCC4)CC3)nc2)CC1 (stereo not drawn) [Example 327, tert-butyl 4-((6-(4-(morpholine-4-carbonyl)cyclohex-1-enyl)pyridin-3-yloxy)methyl)piperidine-1-carboxylate]"
